Reference: patent US9243002B2, “Tetracyclic heterocycle compounds and methods of use thereof for the treatment of hepatitis C” (priority 2013, dated 2016)
Read-outs that look alike come from different tables or passages of the source.

Experiments:
[1] = system: HCV genotype 1a replicon; experiment: HCV replicon assay, genotype 1a (cell ELISA for NS3/4A); format: cell-based, hepatitis C virus
How it was run: (§1)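 Stable replicon cells plated with a compound dilution series without G418 and incubated 96 h, then lysed. Replicon RNA measured indirectly by cell ELISA with an NS3/4A-specific antibody. IC50 calculated relative to DMSO control by four-parameter fit.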

[2] = system: HCV genotype 1b replicon; experiment: HCV replicon assay, genotype 1b (cell ELISA for NS3/4A); format: cell-based, hepatitis C virus
How it was run: as §1

[3] = Hepatitis C virus, 96 h, read-out: 1a IC50 (nM), genotype 1a replicon cells, 96 hours incubation, NS3/4A ELISA
[4] = Hepatitis C virus, 96 h, read-out: 1b IC50 (nM), genotype 1b replicon cells, 96 hours incubation, NS3/4A ELISA

SMILES: CNC(=O)c1c(-c2ccc(F)cc2)oc2cc(N(C)S(C)(=O)=O)c(-c3ccc4c(n3)-c3cc5c(C#N)cccc5n3CCC4)cc12 [Example 73]
- IC50 [1, 3]: 2.01 nM
- IC50 [2, 4]: 2.78 nM

SMILES: CNC(=O)c1c(-c2ccc(F)cc2)oc2cc(N(C)S(C)(=O)=O)c(-c3ccc4c(n3)-c3cc5c(F)cccc5n3C(CN3CC(F)(F)C3)C4)cc12 (centres unmarked) [Example 91]
- IC50 [1, 3]: 27.6 nM
- IC50 [2, 4]: 9.23 nM

SMILES: CNC(=O)c1c(-c2ccc(F)cc2)oc2cc(N(C)S(C)(=O)=O)c(-c3ccc4c(n3)-c3cc5c(F)cccc5n3C(CN3CC(F)C3)C4)cc12 (centres unmarked) [Example 90, 5-(11-fluoro-6-((3-fluoroazetidin-1-yl)methyl)-5,6-dihydroindolo[1,2-h][1,7]naphthyridin-2-yl)-2-(4-fluorophenyl)-N-methyl-6-(N-methylmethylsulfonamido)benzofuran-3-carboxamide]
- IC50 [1, 3]: 7.23 nM
- IC50 [2, 4]: 2.79 nM

SMILES: CNC(=O)c1c(-c2ccc(F)cc2)oc2cc(N(C)S(C)(=O)=O)c(-c3ccc4c(n3)-c3cc5c(F)cccc5n3CC4F)cc12 (centres unmarked) [Example 89, 5-(5,11-difluoro-5,6-dihydroindolo[1,2-h][1,7]naphthyridin-2-yl)-2-(4-fluorophenyl)-N-methyl-6-(N-methylmethylsulfonamido)benzofuran-3-carboxamide]
- IC50 [1, 3]: 2.12 nM
- IC50 [2, 4]: 5.49 nM

SMILES: CNC(=O)c1c(-c2ccc(F)cc2)nn2cc(N(C)S(C)(=O)=O)c(-c3ccc4c(n3)-c3cc5c(F)cccc5n3CC4)cc12 [Example 46, 5-(11-fluoro-5,6-dihydroindolo[1,2-h][1,7]naphthyridin-2-yl)-2-(4-fluorophenyl)-N-methyl-6-(N-methylmethylsulfonamido)pyrazolo[1,5-a]pyridine-3-carboxamide]
- IC50 [1, 3]: 2.23 nM
- IC50 [2, 4]: 2.4 nM

SMILES: CNC(=O)c1c(-c2ccc(F)cc2)oc2cc(N(C)S(C)(=O)=O)c(-c3ccc4c(n3)-c3cc5c(F)cccc5n3C(CO)C4)cc12 (centres unmarked) [Example 52]
- IC50 ([1]; read-out: 1a IC50, genotype 1a replicon cells, 96 hours incubation, NS3/4A ELISA): 3.35 nM
- IC50 [2, 4]: 2.32 nM

SMILES: CNC(=O)c1c(-c2ccc(F)cc2)oc2cc(N(C)S(C)(=O)=O)c(-c3ccc4c(n3)-c3cc5cc(F)ccc5n3CC4)cc12 [Example 31, 5-(10-fluoro-5,6-dihydroindolo[1,2-h][1,7]naphthyridin-2-yl)-2-(4-fluorophenyl)-N-methyl-6-(N-methylmethylsulfonamido)benzofuran-3-carboxamide]
- IC50 [1, 3]: 4.53 nM
- IC50 [2, 4]: 4.64 nM

SMILES: CNC(=O)c1c(-c2ccc(F)cc2F)oc2cc(N(C)S(C)(=O)=O)c(-c3ccc4c(n3)-c3cc5c(F)cccc5n3C(CO)C4)cc12 (single isomer, unassigned) [Example 50, (R or S)-2-(2,4-difluorophenyl)-5-(1.1-fluoro-6-(hydroxymethyl)-5,6-dihydroindolo[1,2-h][1,7]naphthyridin-2-yl)-N-methyl-6-(N-methylmethylsulfonamido)benzofuran-3-carboxamide]
- IC50 ([1]; genotype 1a replicon cells, 96 hours incubation, NS3/4A ELISA, read-out: 1a IC50): 1.15 nM
- IC50 ([2]; genotype 1b replicon cells, 96 hours incubation, NS3/4A ELISA, read-out: 1b IC50): 3.36 nM

SMILES: CCc1ccc(-c2oc3cc(N(C)S(C)(=O)=O)c(-c4ccc5c(n4)-c4cc6c(F)cccc6n4CC5)cc3c2C(=O)NC)cn1 [Example 9]
- IC50 [1, 3]: 38.2 nM
- IC50 [2, 4]: 31.2 nM

SMILES: CNC(=O)c1c(-c2ccc(C)nc2)oc2cc(N(C)S(C)(=O)=O)c(-c3cc4c(cn3)CCn3c-4cc4c(F)cccc43)cc12 [Example 40]
- IC50 [1, 3]: 16.6 nM
- IC50 [2, 4]: 17.1 nM

SMILES: CNC(=O)c1c(-c2ccc(F)cc2)oc2cc(N(C)S(C)(=O)=O)c(-c3ccc4c(n3)-c3cc5nc(OC)ccc5n3CC4)cc12 [Example 78]
- IC50 [1, 3]: 206 nM
- IC50 [2, 4]: 22.1 nM

SMILES: CNC(=O)c1c(-c2ccc(F)cc2Cl)oc2cc(N(C)S(C)(=O)=O)c(-c3ccc4c(n3)-c3cc5c(F)cccc5n3CC4)cc12 [Example 12]
- IC50 [1, 3]: 4.59 nM
- IC50 [2, 4]: 10.6 nM

SMILES: CNC(=O)c1c(-c2ccc(F)cc2)oc2cc(N(C)S(C)(=O)=O)c(-c3ccc4c(n3)-c3cc5c(F)cccc5n3CC4)cc12 [Example 85, 5-(11-fluoro-5,6-dihydroindolo[1,2-h][1,7]naphthyridin-2-yl)-2-(4-fluorophenyl)-N-methyl-6-(N-methylmethylsulfonamido)benzofuran-3-carboxamide]
- IC50 [1, 3]: 2.99 nM
- IC50 [2, 4]: 3.29 nM
